Activity calls are given as the source filed them.
What was measured:
Format in all cases: functional, organism-based
Design in all cases: dose 10 mg/kg
Mus musculus [1] = test: Protection against injury in CD-1 mouse spinal cord injury model assessed as edema at 10 mg/kg, ip measured on day 7 by hematoxylin/eosin staining-based assay relative to control
Mus musculus [2] = test: Neuroprotective activity in CD-1 mouse spinal cord injury model assessed as alteration of white matter at 10 mg/kg, ip measured on day 7 by hematoxylin/eosin staining-based assay relative to control
Mus musculus [3] = test: Protection against injury in CD-1 mouse spinal cord injury model assessed as infiltration of leukocyte at 10 mg/kg, ip measured on day 7 by hematoxylin/eosin staining-based assay relative to control
Mus musculus [4] = test: Protection against injury in CD-1 mouse spinal cord injury model assessed as distribution of reticular fibre at 10 mg/kg, ip measured on day 7 by hematoxylin/eosin staining-based assay relative to control
Mus musculus [5] = test: Antiinflammatory activity in CD-1 mouse spinal cord injury model assessed as IkappaB-alpha expression at 10 mg/kg, ip measured on day 7 by Western blotting analysis relative to control
Mus musculus [6] = test: Antiinflammatory activity in CD-1 mouse spinal cord injury model assessed as reduction of NF-kappaB-p65 level at 10 mg/kg, ip measured on day 7 by immunohistological analysis relative to control
Mus musculus [7] = test: Antiinflammatory activity in CD-1 mouse spinal cord injury model assessed as reduction in iNOS expression at 10 mg/kg, ip measured on day 7 by immunohistological analysis relative to control
Mus musculus [8] = test: Antiapoptotic activity in CD-1 mouse spinal cord injury model assessed as reduction in Bax level at 10 mg/kg, ip measured on day 7 by immunohistological analysis relative to control
Mus musculus [9] = test: Antiapoptotic activity in CD-1 mouse spinal cord injury model assessed as increase in Bcl-2 level at 10 mg/kg, ip measured on day 7 by immunohistological analysis relative to control
Mus musculus [10] = test: Antiapoptotic activity in CD-1 mouse spinal cord injury model assessed as reduction in caspase expression at 10 mg/kg, ip measured on day 7 by Western blotting analysis relative to control

Measured: Activity

C[C@@H]1O[C@@H](Oc2ccc(CN=C=S)cc2)[C@H](O)[C@H](O)[C@H]1O
active: Mus musculus [1] | Mus musculus [2] | Mus musculus [3] | Mus musculus [4] | Mus musculus [5] | Mus musculus [6] | Mus musculus [7] | Mus musculus [8] | Mus musculus [9] | Mus musculus [10]

Source: ChEMBL document CHEMBL3351973, “4(α-l-rhamnosyloxy)-benzyl isothiocyanate, a bioactive phytochemical that attenuates secondary damage in an experimental model of spinal cord injury” (Bioorg Med Chem, 2015)
